In patent publication EP1068184B1, “N-ARYLOXYETHYLAMINE DERIVATIVES FOR THE TREATMENT OF DEPRESSION” (Wyeth, priority 1998, dated 1999):
Like-named read-outs stand apart in the source and are kept apart here. Each block holds one molecule with its values, some of them ahead of it.

How the values were obtained:
[1] = target: T1, human 5-HT1A receptor subtype (Homo sapiens, UniProt P08908); assay: 5-HT1A receptor binding assay with [3H]8-OH-DPAT on membranes of 5-HT1A.CHO cells; conditions: for Ki: [3H]8-OH-DPAT 1.5 nM, CHO cell membranes; for 5-HT1A (% @10nM) / 5-HT1A (% @1000nM): given instead of a Ki
T1 construct: expressed in transfected cells
T1 sequence (P08908 1-422): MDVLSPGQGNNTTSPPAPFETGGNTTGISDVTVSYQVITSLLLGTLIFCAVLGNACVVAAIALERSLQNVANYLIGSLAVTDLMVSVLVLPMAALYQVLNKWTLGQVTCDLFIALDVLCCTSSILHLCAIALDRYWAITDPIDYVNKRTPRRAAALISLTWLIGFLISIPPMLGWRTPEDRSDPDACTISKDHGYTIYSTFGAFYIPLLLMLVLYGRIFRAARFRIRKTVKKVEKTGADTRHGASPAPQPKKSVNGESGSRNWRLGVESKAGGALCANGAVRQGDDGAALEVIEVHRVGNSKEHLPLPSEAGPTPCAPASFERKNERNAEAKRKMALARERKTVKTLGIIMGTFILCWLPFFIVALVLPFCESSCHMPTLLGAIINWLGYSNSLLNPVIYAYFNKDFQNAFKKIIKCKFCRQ
Procedure: (§1) The PCR cloning of the human 5-HT1A receptor subtype from a human genomic library has been described previously Chanda et al., Mol. Pharmacol., 43:516 (1993). A stable Chinese hamster ovary cell line expressing the human 5-HT1A receptor subtype (5-HT1A.CHO cells) was employed throughout this study. Cells were maintained in DMEM supplemented with 10% foetal calf serum, non-essential amino acids and penicillin/ streptomycin.
Cells were grown to 95-100% confluency as a monolayer before membranes were harvested for binding studies. Cells were gently scraped from the culture plates, transferred to centrifuge tubes, and washed twice by centrifugation (2000 rpm for 10 min., 4°C) in buffer (50 mM Tris; pH 7.5). The resulting pellets were aliquoted and placed at -80°C. On the day of assay, the cells were thawed on ice, and resuspended in buffer. Studies were conducted using [^3H]8-OH-DPAT as the radioligand. The binding assay was performed in 96 well microtiter plates in a final total volume of 250 µL of buffer. Competition experiments were performed by using 7 concentrations of unlabelled drug and a final ligand concentration of 1.5 nM . Non-specific binding was determined in the presence of 10 µM 5HT. Saturation analysis was conducted by using [^3H]8-OH-DPAT at concentrations ranging from 0.3-30 nM. Following a 30 minute incubation at room temperature, the reaction was terminated by the addition of ice cold buffer and rapid filtration using a M-96 Brandel Cell Harvester (Gaithersburg, MD) through a GF/B filter presoaked for 30 minutes in 0.5% polyethyleneimine.

[2] = target: T2, serotonin transporter (Rattus norvegicus, UniProt P31652); assay: serotonin transporter affinity, 3H-paroxetine binding to frontal cortical membranes; set-up: species or system male Sprague-Dawley rats
T2 construct: frontal cortical membranes prepared from male Sprague-Dawley rats; from tissue; host or cells: rat frontal cortex membranes
T2 sequence (P31652 whole entry): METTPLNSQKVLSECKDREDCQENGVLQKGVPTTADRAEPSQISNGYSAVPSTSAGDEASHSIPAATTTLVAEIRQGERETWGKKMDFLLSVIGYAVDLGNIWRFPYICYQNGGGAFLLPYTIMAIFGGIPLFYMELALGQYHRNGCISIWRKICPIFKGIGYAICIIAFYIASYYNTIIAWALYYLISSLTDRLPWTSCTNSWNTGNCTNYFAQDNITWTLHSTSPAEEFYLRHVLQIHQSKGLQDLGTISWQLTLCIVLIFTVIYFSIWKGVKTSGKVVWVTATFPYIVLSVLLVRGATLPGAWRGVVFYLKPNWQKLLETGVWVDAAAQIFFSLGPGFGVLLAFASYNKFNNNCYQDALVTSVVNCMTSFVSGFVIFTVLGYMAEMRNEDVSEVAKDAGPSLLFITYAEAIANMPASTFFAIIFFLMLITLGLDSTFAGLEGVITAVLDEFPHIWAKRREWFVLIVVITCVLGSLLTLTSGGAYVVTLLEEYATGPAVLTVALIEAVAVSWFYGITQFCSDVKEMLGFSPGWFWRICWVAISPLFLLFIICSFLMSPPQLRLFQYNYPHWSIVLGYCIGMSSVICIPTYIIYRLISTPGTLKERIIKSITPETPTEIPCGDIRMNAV
Procedure: Briefly, frontal cortical membranes prepared from male Sprague-Dawley rats were incubated with ^3H-paroxetine (0.1 nM) for 60 min at 25°C. All tubes also contained either vehicle, test compound (one to eight concentrations), or a saturating concentration of fluoxetine (10 µM) to define specific binding. All reactions are terminated by the addition of ice cold Tris buffer followed by rapid filtration using a Tom Tech filtration device to separate bound from free ^3H-paroxetine.

[3] = target: T1, human 5-HT1A receptor subtype; assay: cAMP formation in forskolin-treated cells (cAMP SPA assay); type: cell-based; conditions: forskolin 1 uM, 10 min at 37°C
Procedure: as §1
The following assays were performed by incubating the cells with DMEM containing 25 mM HEPES, 5 mM theophylline and 10 µM pargyline for a period of 20 minutes at 37°C. Functional activity was assessed by treating the cells with forskolin (1 uM final concentration) followed immediately by test compound (6 concentrations) for an additional 10 min at 37°C. In separate experiments, 6 concentrations of antagonist were preincubated for 20 min prior to the addition of 10 nM 8-OH-DPAT and forskolin. The reaction was terminated by removal of the media and addition of 0.5 ml ice cold assay buffer. Plates were stored at -20°C prior to assessment of cAMP formation by a cAMP SPA assay (Amersham).

[4] = target: T3, 5-HT1A cloned receptor (Homo sapiens, UniProt P08908); assay: [35S]-GTPγS binding assay on 5-HT1A cloned receptor membrane fragments; type: biochemical; conditions: maximum agonist response defined by excess 8-OH-DPAT
T3 construct: expressed in transfected cells
T3 sequence (P08908 1-422): T1 sequence (P08908 1-422)
Procedure: The [^35S]-GTPγS binding assay was similar to that used by Lazareno and Birdsall, Br. J. Pharmacol. 109:1120 (1993). Briefly, 5-HT1A cloned receptor membrane fragments (as used for 5-HT1A receptor binding assays) were stored at -70 °C until needed. When needed, membranes were rapidly thawed, centrifuged at 40,000 x g for 10 minutes and resuspended at 4 °C for 10 minutes in assay buffer (25 mM HEPES, 3 mM MgCl2, 100 mM NaCI, 1 mM EDTA, 10 uM GDP, […] DTT, pH 8.0). These membranes were then incubated for 30 min at 30 °C with [^35S]GTPgS (1 nM) in the presence of vehicle, test compound (one to eight concentrations), or excess 8-OH-DPAT to define maximum agonist response. All reactions are terminated by the addition of ice cold Tris buffer followed by rapid filtration using a Tom Tech® filtration device to separate bound from free [^35S]GTPgS. Agonists produce an increase in the amount of [^35S]GTPgS bound whereas antagonists produce no increase in binding. Bound radioactivity was counted and analyzed as above.

[5] = 3H-paroxetine 0.1 nM, rat frontal cortical membranes, read-out: ST (Ki)

SMILES: N#Cc1ccc2[nH]cc([C@H]3CC[C@@H](NCCOc4cc(F)cc5c4OCCC5)CC3)c2c1 [Example 5e, 3-{(1,4-cis)-4-[2-(6-Fluoro-chroman-8-yloxy)-ethylamino]-cyclohexyl}-1H-indole-5-carbonitrile]
Ki [1]: 385 nM
Ki [2, 5]: 2.74 nM

SMILES: Cc1nc2c(OCCN[C@H]3CC[C@H](c4c[nH]c5ccc(F)cc54)CC3)cc(Cl)cc2[nH]1 [Example 8b, [2-(6-Chloro-2-methyl-1H-benzoimidazol-4-yloxy)-ethyl]-[(1,4-trans)-4-(5-fluoro-1H-indol-3-yl)-cyclohexyl]-amine]
Ki [1]: 18.9 nM
Ki [2, 5]: 0.52 nM
Emax [3]: 0%

SMILES: COc1ccccc1OCCNCC1CCC(c2c[nH]c3ccc(C#N)cc23)CC1 (stereo not drawn) [Example 10b, 3-(4-{[2-(Methoxy-phenoxy)-ethylamino]-methyl}-cyclohexyl)-1H-indole-5-carbonitrile]
5-HT1A (% @10nM) [1]: 7%@10nM
Ki [2, 5]: 1.53 nM

Ki [1]: 22.4 nM
SMILES: COc1ccccc1OCCN[C@H]1CC[C@H](c2c[nH]c3ccc(F)cc32)CC1 [Example 1b, [(trans)-4-(5-Fluoro-1H-indol-3-yl)-cyclohexyl]-[2-(2-methoxy-phenoxy)-ethyl]-amine]

SMILES: COc1cc(F)ccc1OCCN[C@H]1CC[C@@H](c2c[nH]c3ccc(F)cc32)CC1 [Example 9a, [(1,4-cis)-4-(5-Fluoro-1H-indol-3-yl)-cyclohexyl]-[2-(4-fluoro-2-methoxy-phenoxy)-ethyl]-amine]
5-HT1A (% @10nM) [1]: 16%@10nM
Ki [2, 5]: 1.76 nM
Emax [4]: 45%

SMILES: Fc1ccc2[nH]cc([C@H]3CC[C@H](NCCOc4cc(Cl)cc5[nH]cnc45)CC3)c2c1 [Example 8a, [2-(6-Chloro-1H-benzoimidazol-4-yloxy)-ethyl]-[(1,4-trans)-4-(5-fluoro-1H-indol-3-yl)-cyclohexyl]-amine]
Ki [1]: 12.7 nM
Ki [2, 5]: 1.6 nM
Emax [4]: 0%

SMILES: Fc1ccc2c(c1)[nH]cc2[C@H]1CC[C@@H](NCCOc2cccc3c2OCCO3)CC1 [Example 4c]
Ki [1]: 353 nM
Ki [2, 5]: 6.37 nM

SMILES: Fc1ccc2[nH]cc([C@H]3CC[C@@H](NCCOc4cccc5c4OCCO5)CC3)c2c1 [Example 4a]
Ki [1]: 484 nM
Ki [2, 5]: 18 nM

SMILES: COc1cc(S(C)(=O)=O)c(F)cc1OCCN[C@H]1CC[C@H](c2c[nH]c3ccc(F)cc32)CC1 [Example 12, [(1,4-trans)-4-(5-Fluoro-1H-indol-3-yl)-cyclohexyl]-[2-(5-fluoro-4-methanesulfonyl-2-methoxy-phenoxy)-ethyl]-amine]
5-HT1A (% @10nM) [1]: 0%@10nM
Ki [2]: 0.47 nM
Emax [4]: 0%

SMILES: Fc1ccc2c(c1)[nH]cc2[C@H]1CC[C@H](NCCOc2cccc3c2OCCO3)CC1 [Example 4d]
Ki [1]: 16.7 nM
Ki [2, 5]: 0.21 nM
Emax [4]: 74.8%

Emax [4]: 85%
SMILES: OC1(CNCCOc2cccc3[nH]ccc23)CCC(c2c[nH]c3ccc(F)cc23)CC1 (stereo not drawn) [Example 13, (1,4)-4-(5-Fluoro-1H-indol-3-yl)-1-([2-(1H-indol-4-yloxy)-ethylamino]-methyl}-cyclohexanol]

SMILES: COc1cc(F)c(F)cc1OCCN[C@H]1CC[C@@H](c2c[nH]c3ccc(F)cc32)CC1 [Example 11a, (1,4-cis)-[2-(4,5-Difluoro-2-methoxy-phenoxy)-ethyl]-[4-(5-fluoro-1H-indol-3-yl)-cyclohexyl]-amine]
5-HT1A (% @10nM) [1]: 0%@10nM
Ki [2]: 1.7 nM
Emax [4]: 0%

SMILES: COc1ccc(F)cc1OCCN[C@H]1CC[C@@H](c2c[nH]c3cc(F)ccc32)CC1 [Example 2a, [(1,4-cis)-4-(6-Fluoro-1H-indol-3-yl)-cyclohexyl]-[2-(5-fluoro-2-methoxy-phenoxy)-ethyl]-amine]
Ki [1]: 996 nM
Ki [2, 5]: 1.19 nM

SMILES: Cn1cc([C@H]2CC[C@H](NCCOc3cc(F)cc4c3OCCC4)CC2)c2cc(C#N)ccc21 [Example 5d, 3-{(1,4-cis)-4-[2-(6-Fluoro-chroman-8-yloxy)-ethylamino]-cyclohexyl}-1-methyl-1H-indole-5-carbonitrile]
Ki [1]: 24 nM
Ki [2, 5]: 21.4 nM

SMILES: COc1cc(F)c(F)cc1OCCN[C@H]1CC[C@H](c2c[nH]c3ccc(F)cc32)CC1 [Example 11b, (1,4-trans)-[2-(4,5-Difluoro-2-methoxy-phenoxy)-ethyl]-[4-(5-fluoro-1H-indol-3-yl)-cyclohexyl]-amine]
Ki [1]: 24.9 nM
Ki [2]: 0.7 nM
Emax [4]: 0%

SMILES: COc1cc(F)ccc1OCCN[C@H]1CC[C@H](c2c[nH]c3ccc(F)cc32)CC1 [Example 9b, [(1,4-trans)-4-(5-Fluoro-1H-indol-3-yl)-cyclohexyl]-[2-(4-fluoro-2-methoxy-phenoxy)-ethyl]-amine]
Ki [1]: 78.3 nM
Ki [2, 5]: 3.28 nM
Emax [4]: 39.5%

Ki [1]: 307 nM
SMILES: COc1ccccc1OCCN[C@H]1CC[C@@H](c2c[nH]c3ccc(F)cc32)CC1 [Example 1a, [(cis)-4-(5-Fluoro-1H-indol-3-yl)-cyclohexyl]-[2-(2-methoxy-phenoxy)-ethyl]-amine]

SMILES: N#Cc1ccc2[nH]cc([C@H]3CC[C@H](NCCOc4cc(F)cc5c4OCC5)CC3)c2c1 [Example 6b]
Ki [1]: 23.5 nM
Ki [2, 5]: 1.53 nM

SMILES: N#Cc1ccc2[nH]cc([C@H]3CC[C@@H](NCCOc4cc(F)cc5c4OCC5)CC3)c2c1 [Example 6a]
5-HT1A (% @1000nM) [1]: 49%@1000nM
Ki [2, 5]: 1.07 nM

SMILES: Fc1cc2c(c(OCCN[C@H]3CC[C@@H](c4c[nH]c5ccc(F)cc54)CC3)c1)OCCC2 [Example 5a, [2-(6-Fluoro-chroman-8-yloxy)-ethyl]-[(1,4-cis)-4-(5-fluoro-1H -indol-3-yl)-cyclohexyl]-amine]
5-HT1A (% @1000nM) [1]: 49%@1000nM
Ki [2, 5]: 13 nM

SMILES: Fc1cc(OCCN[C@H]2CC[C@H](c3c[nH]c4ccc(F)cc43)CC2)c2occc2c1 [Example 7b, [2-(5-Fluoro-benzofuran-7-yloxy)-ethyl]-[(1,4-trans)-4-(5-fluoro-1H -indol-3-yl)-cyclohexyl]-amine]
Ki [1]: 18.8 nM

SMILES: Cn1cc([C@H]2CC[C@@H](NCCOc3cc(F)cc4c3OCCC4)CC2)c2cc(C#N)ccc21 [Example 5c, 3-{(1,4-cis)-4-[2-(6-Fluoro-chroman-8-yloxy)-ethylamino]-cyclohexyl}-1-methyl-1H-indole-5-carbonitrile]
5-HT1A (% @1000nM) [1]: 47%@1000nM
Ki [2, 5]: 0.53 nM

SMILES: Fc1cc(OCCN[C@H]2CC[C@@H](c3c[nH]c4ccc(F)cc43)CC2)c2occc2c1 [Example 7a, [2-(5-Fluoro-benzofuran-7-yloxy)-ethyl]-[(1,4-cis)-4-(5-fluoro-1H -indol-3-yl)-cyclohexyl]-amine]
Ki [1]: 146 nM

SMILES: Fc1ccc2[nH]cc([C@H]3CC[C@@H](NCCOc4cccc5[nH]ccc45)CC3)c2c1 [Example 3a]
Ki [1]: 147 nM
Ki [2, 5]: 26 nM
